Measurements taken from PubChem BioAssay AID248 (DTP/NCI, 2004).
Where “and” joins values, the source holds several entries; their conditions need not be identical. Equal values may be shown once. Toxic doses and inconclusive results are not listed.

System: L1210 leukemia ip in BDF1 mice, survival T/C
Assay: NCI In Vivo Anticancer Drug Screen. Data for tumor model L1210 Leukemia (intraperitoneal) in B6D2F1 (BDF1) mice
Conditions: endpoint: mean survival time, higher = longer survival
Procedure, shortened: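 Ratio derived from survival: compound-dosed mice over vehicle-dosed mice, all bearing a transplantable tumor.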

[1] = dose: 50.0 mg/kg/injection, schedule: Q01DX001 (ip), vehicle: carboxymethylcellulose (CMC)
[2] = dose: 100.0 mg/kg/injection, schedule: Q01DX001 (ip), vehicle: carboxymethylcellulose (CMC)
[3] = dose: 200.0 mg/kg/injection, schedule: Q01DX001 (ip), vehicle: carboxymethylcellulose (CMC)
[4] = dose: 400.0 mg/kg/injection, schedule: Q01DX001 (ip), vehicle: carboxymethylcellulose (CMC)
[5] = dose: 100.0 mg/kg/injection, schedule: Q04DX003 (ip), vehicle: Klucel (hydroxypropylcellulose) (HPC)
[6] = dose: 200.0 mg/kg/injection, schedule: Q04DX003 (ip), vehicle: Klucel (hydroxypropylcellulose) (HPC)
[7] = dose: 400.0 mg/kg/injection, schedule: Q04DX003 (ip), vehicle: Klucel (hydroxypropylcellulose) (HPC)
[8] = dose: 100.0 mg/kg/injection, schedule: Q01DX001 (ip), vehicle: Klucel (hydroxypropylcellulose) (HPC)
[9] = dose: 200.0 mg/kg/injection, schedule: Q01DX001 (ip), vehicle: Klucel (hydroxypropylcellulose) (HPC)
[10] = dose: 400.0 mg/kg/injection, schedule: Q01DX001 (ip), vehicle: Klucel (hydroxypropylcellulose) (HPC)
[11] = dose: 100.0 mg/kg/injection, schedule: Q04DX002 (ip), vehicle: Klucel (hydroxypropylcellulose) (HPC)
[12] = dose: 200.0 mg/kg/injection, schedule: Q04DX002 (ip), vehicle: Klucel (hydroxypropylcellulose) (HPC)
[13] = dose: 400.0 mg/kg/injection, schedule: Q04DX002 (ip), vehicle: Klucel (hydroxypropylcellulose) (HPC)
[14] = dose: 100.0 mg/kg/injection, schedule: Q01DX009 (ip), vehicle: Klucel (hydroxypropylcellulose) (HPC)
[15] = dose: 200.0 mg/kg/injection, schedule: Q01DX009 (ip), vehicle: Klucel (hydroxypropylcellulose) (HPC)
[16] = dose: 400.0 mg/kg/injection, schedule: Q01DX009 (ip), vehicle: Klucel (hydroxypropylcellulose) (HPC)
[17] = dose: 100.0 mg/kg/injection, schedule: Q01DX009 (ip), vehicle: saline with Tween-80
[18] = dose: 100.0 mg/kg/injection, schedule: Q04DX003 (ip), vehicle: saline with Tween-80
[19] = dose: 200.0 mg/kg/injection, schedule: Q01DX009 (ip), vehicle: saline with Tween-80
[20] = dose: 200.0 mg/kg/injection, schedule: Q04DX003 (ip), vehicle: saline with Tween-80
[21] = dose: 400.0 mg/kg/injection, schedule: Q01DX009 (ip), vehicle: saline with Tween-80
[22] = dose: 400.0 mg/kg/injection, schedule: Q04DX003 (ip), vehicle: saline with Tween-80

Structure (SMILES): O=C1C(=O)c2ccccc2C(O)=C1Sc1ccc(Cl)cc1
- T/C (dose: 75.0 mg/kg/injection, schedule: Q01DX001 (ip), vehicle: carboxymethylcellulose (CMC)): 103 % of control
- T/C (dose: 150.0 mg/kg/injection, schedule: Q01DX001 (ip), vehicle: carboxymethylcellulose (CMC)): 98 % of control
- T/C (dose: 300.0 mg/kg/injection, schedule: Q01DX001 (ip), vehicle: carboxymethylcellulose (CMC)): 98 % of control

Structure (SMILES): NC(=S)N/N=C/c1cc(Cl)cc(Cl)c1
- T/C (dose: 100.0 mg/kg/injection, schedule: Q01DX001 (ip), vehicle: other): 96 % of control
- T/C (dose: 200.0 mg/kg/injection, schedule: Q01DX001 (ip), vehicle: other): 102 % of control
- T/C (dose: 400.0 mg/kg/injection, schedule: Q01DX001 (ip), vehicle: other): 106 % of control

Structure (SMILES): COc1ccc(CN2CCCN(Cc3ccc(OC)cc3OC)C2c2ccc(N(CCCl)CCCl)cc2Cl)c(OC)c1
- T/C [1]: 101 % of control
- T/C [2]: 95 % of control
- T/C [3]: 98 % of control
- T/C [4]: 101 % of control

Structure (SMILES): COC(=O)C(CCSC)NC(=O)CNC(=O)OCc1ccccc1 (stereo unspecified)
- T/C [5]: 99 % of control
- T/C [6]: 97 % of control
- T/C [7]: 92 % of control

Structure (SMILES): CC(=O)OCC1OC(OC(C)=O)C(OC(C)=O)C(OC(C)=O)C1OC(C)=O (stereo unspecified)
- T/C [8]: 101 % of control
- T/C [5]: 97 % of control
- T/C [9]: 94 % of control
- T/C [6]: 93 % of control
- T/C [10]: 105 % of control
- T/C [7]: 102 % of control

Structure (SMILES): O=C(OCc1ccccc1CN1CCCC1)c1ccc(Br)cc1
- T/C [11]: 111 % of control
- T/C [12]: 90 % of control
- T/C [13]: 96 % of control

Structure (SMILES): O=C(CCN1CCC2CCC(C2)C1)c1ccccc1C(F)(F)F (stereo unspecified)
- T/C [1]: 101 % of control

Structure (SMILES): O=C1OC(c2cccc([N+](=O)[O-])c2)=N/C1=C\c1cccc2ccccc12
- T/C [14]: 94 % of control
- T/C (dose: 100.0 mg/kg/injection, schedule: Q04DX002 (ip), vehicle: saline): 96 % of control
- T/C [15]: 105 % of control
- T/C (dose: 200.0 mg/kg/injection, schedule: Q04DX002 (ip), vehicle: saline): 101 % of control
- T/C [16]: 97 % of control
- T/C (dose: 400.0 mg/kg/injection, schedule: Q04DX002 (ip), vehicle: saline): 94 % of control

Structure (SMILES): COc1ccc2c(c1)CCC(=O)O2
- T/C [1]: 100 % of control
- T/C [2]: 96 % of control
- T/C (dose: 100.0 mg/kg/injection, schedule: Q04DX003 (ip), vehicle: saline sonified): 102 % of control
- T/C [3]: 100 % of control
- T/C (dose: 200.0 mg/kg/injection, schedule: Q04DX003 (ip), vehicle: saline sonified): 104 % of control
- T/C [4]: 100 % of control
- T/C (dose: 400.0 mg/kg/injection, schedule: Q04DX003 (ip), vehicle: saline sonified): 102 % of control

Structure (SMILES): COc1ccc(OC)c2c(C)cc(Cl)nc12
- T/C (dose: 100.0 mg/kg/injection, schedule: Q01DX001 (ip), vehicle: saline): 104 % of control
- T/C (dose: 200.0 mg/kg/injection, schedule: Q01DX001 (ip), vehicle: saline): 98 % of control
- T/C (dose: 400.0 mg/kg/injection, schedule: Q01DX001 (ip), vehicle: saline): 110 % of control

Structure (SMILES): NC(CSS(=O)(=O)O)=NC1CCCC1
- T/C (dose: 12.5 mg/kg/injection, schedule: Q01DX001 (ip), vehicle: carboxymethylcellulose (CMC)): 107 % of control
- T/C (dose: 25.0 mg/kg/injection, schedule: Q01DX001 (ip), vehicle: carboxymethylcellulose (CMC)): 101 % of control
- T/C [1]: 102 % of control

Structure (SMILES): COc1ccc(C2NCCCC2c2ccccc2)cc1 (stereo unspecified)
- T/C [2]: 102 % of control
- T/C [3]: 94 % of control
- T/C [4]: 110 % of control

Structure (SMILES): CCCCNc1ncnc2c1ncn2C1OC(CO)C(O)C1O (stereo unspecified)
- T/C (dose: 50.0 mg/kg/injection, schedule: Q01DX005 (ip), vehicle: saline): 105 % of control

Structure (SMILES): CCOC(=O)CNCc1ccc(C)cc1
- T/C (dose: 100.0 mg/kg/injection, schedule: Q01DX009 (ip), vehicle: water): 102 % of control
- T/C (dose: 100.0 mg/kg/injection, schedule: Q04DX003 (ip), vehicle: water): 93 % of control
- T/C (dose: 200.0 mg/kg/injection, schedule: Q01DX009 (ip), vehicle: water): 111 % of control
- T/C (dose: 200.0 mg/kg/injection, schedule: Q04DX003 (ip), vehicle: water): 93 % of control
- T/C (dose: 400.0 mg/kg/injection, schedule: Q01DX009 (ip), vehicle: water): 105 % of control
- T/C (dose: 400.0 mg/kg/injection, schedule: Q04DX003 (ip), vehicle: water): 97 % of control

Structure (SMILES): COC(=O)C1C=CCC(C(=O)OC)C1 (stereo unspecified)
- T/C [17]: 91 % of control
- T/C [18]: 109 % of control
- T/C [19]: 96 % of control
- T/C [20]: 96 % of control
- T/C [21]: 100 % of control
- T/C [22]: 93 % of control

Structure (SMILES): COc1cc2c(cc1O)-c1cc3ccc(OC)c(OC)c3c[n+]1CC2
- T/C [11]: 103 % of control

Structure (SMILES): COc1cc2c(cc1OC)NCc1cccn1C2
- T/C (dose: 25.0 mg/kg/injection, schedule: Q04DX002 (ip), vehicle: saline with Tween-80): 101 % of control
- T/C (dose: 50.0 mg/kg/injection, schedule: Q04DX002 (ip), vehicle: saline with Tween-80): 97 % of control
- T/C (dose: 100.0 mg/kg/injection, schedule: Q04DX002 (ip), vehicle: saline with Tween-80): 105 % of control

Structure (SMILES): Nc1nc(N)c(-c2ccc(Cl)c(Cl)c2)c(/C=C/C=C/c2cccnc2)n1
- T/C (dose: 16.7 mg/kg/injection, schedule: Q01DX009 (ip), vehicle: saline with Tween-80): 112 % of control
- T/C (dose: 37.5 mg/kg/injection, schedule: Q01DX009 (ip), vehicle: saline with Tween-80): 86 % of control

Structure (SMILES): O=S(=O)(c1ccccc1)S(=O)(=O)c1ccccc1
- T/C [14]: 107 % of control
- T/C [11]: 105 % of control
- T/C [15]: 88 % of control
- T/C [12]: 86 % of control
- T/C [16]: 96 % of control
- T/C [13]: 90 % of control

Structure (SMILES): Cc1ccc(S(=O)(=O)C=C(c2ccccc2)c2ccccc2)cc1
- T/C [8]: 98 % of control
- T/C [5]: 100 % of control
- T/C [9]: 96 % of control
- T/C [6]: 95 % of control
- T/C [10]: 104 % of control
- T/C [7]: 95 % of control

Structure (SMILES): C[S+](C)CCCCCC[S+](C)C
- T/C (dose: 100.0 mg/kg/injection, schedule: Q04DX003 (ip), vehicle: saline): 102 % of control

Structure (SMILES): COc1ccc(OC(=O)Nc2ccc(SC)cc2)cc1
- T/C [17]: 104 % of control
- T/C [5]: 96 % of control
- T/C [19]: 90 % of control
- T/C [6]: 96 % of control
- T/C [21]: 98 % of control
- T/C [7]: 102 % of control

Structure (SMILES): C[As](=O)(O)c1ccc(N)cc1
- T/C (dose: 25.0 mg/kg/injection, schedule: Q04DX003 (ip), vehicle: Klucel (hydroxypropylcellulose) (HPC)): 95 % of control
- T/C (dose: 50.0 mg/kg/injection, schedule: Q04DX003 (ip), vehicle: Klucel (hydroxypropylcellulose) (HPC)): 93 % of control
- T/C [5]: 90 % of control and 92 % of control

Structure (SMILES): COc1ccc(OC)c2[nH]c(-c3ccc(Cl)cc3)cc12
- T/C [11]: 99 % of control
- T/C [12]: 102 % of control
- T/C [13]: 89 % of control

Structure (SMILES): C[N+](C)(C)CCC[N+](C)(C)CCN1C(=O)c2cccc3cccc(c23)C1=O
- T/C (dose: 6.25 mg/kg/injection, schedule: Q01DX001 (ip), vehicle: saline): 103 % of control
- T/C (dose: 12.5 mg/kg/injection, schedule: Q01DX001 (ip), vehicle: saline): 103 % of control
- T/C (dose: 25.0 mg/kg/injection, schedule: Q01DX001 (ip), vehicle: saline): 103 % of control
- T/C (dose: 50.0 mg/kg/injection, schedule: Q01DX001 (ip), vehicle: saline): 101 % of control

Structure (SMILES): S=C(S)N1CCC(CC2CCN(C(=S)S)CC2)CC1
- T/C [17]: 98 % of control
- T/C [18]: 102 % of control
- T/C [19]: 93 % of control
- T/C [20]: 96 % of control
- T/C [22]: 86 % of control

Structure (SMILES): OCCCC1CCCCC1
- T/C (dose: 50.0 mg/kg/injection, schedule: Q01DX009 (ip), vehicle: saline): 97 % of control
- T/C (dose: 100.0 mg/kg/injection, schedule: Q01DX009 (ip), vehicle: saline): 175 % of control
- T/C (dose: 200.0 mg/kg/injection, schedule: Q01DX009 (ip), vehicle: saline): 103 % of control
